21 compounds from patent US10954252B1, “Inhibitors of human immunodeficiency virus replication” (ViiV HEALTHCARE UK (NO.5) LIMITED, priority 2017, dated 2021) can be followed below.

Each structure is given as a SMILES string.

For data set [1], the system named is recombinant NL4-3 virus (nef section replaced with Renilla luciferase gene) in MT-2 cells. The data set is described as follows: HIV cell culture assay (antiviral activity, luciferase readout). Format: cell-based. The settings on record: MT-2 cells infected for 4-5 days with recombinant NL4-3 luciferase virus. In outline: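 NL4-3 reporter virus carrying Renilla luciferase in place of part of nef, produced in 293T cells, was used to infect MT-2 cells for 4-5 days with serial compound dilutions. Luciferase activity was read with a live-cell substrate; EC50 derived from the median effect equation.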

A short description of data set [2]: Compound cytotoxicity, XTT-based colorimetric assay. Format: cell-based. The settings on record: human, uninfected MT2 cells. In outline:
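CC50 from uninfected MT2 cells run under the antiviral-assay protocol without virus. Viability read on day 4 by XTT colorimetric assay.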

As usually defined, the EC50 is the concentration needed to bring the measured effect to its halfway point. By CC50 is commonly meant the concentration at which the toxic effect on the cells reaches its halfway point. A lower CC50 goes with harm at low concentration. For the compound `Cn1nc(NS(C)(=O)=O)c2c(Cl)ccc(-n3c([C@H](Cc4cc(F)cc(F)c4)NC(=O)Cn4nc(C(F)F)c5c4C(F)(F)[C@@H]4C[C@H]54)nc4cc(C(C)(F)F)ccc4c3=O)c21` (mixture of isomers) [Example 195, N—((S)-1-(3-(4-chloro-1-methyl-3-(methylsulfonamido)-1H-indazol-7-yl)-7-(1,1-difluoroethyl)-4-oxo-3,4-dihydroquinazolin-2-yl)-2-(3,5-difluorophenyl)ethyl)-2-((3bS,4aR)-3-(difluoromethyl)-5,5-difluoro-3b,4,4a,5-tetrahydro-1H-cyclopropa[3,4]cyclopenta[1,2-c]pyrazol-1-yl)acetamide], in data set [1] (Renilla, NL43, Table 1a), the concentration giving a half-maximal response (EC50) came to 74.4 nM. In data set [2] (Table 1a, day 4, XTT), the CC50 at 4 days was over 1000 nM.
Regarding `Cn1nc(NS(C)(=O)=O)c2c(Cl)ccc(-n3c([C@H](Cc4cc(F)cc(F)c4)NC(=O)Cn4ccc(C5CC5)n4)nc4cccc(C(F)(F)F)c4c3=O)c21` (single isomer, unassigned) [Example 136], in data set [1] (Renilla, NL43, Table 1a), the concentration giving a half-maximal response (EC50) is 38.9 nM. The CC50 at 4 days in data set [2] (Table 1a, day 4, XTT) is over 1000 nM.
On to `Cn1nc(NS(C)(=O)=O)c2c(Cl)ccc(-n3c([C@H](Cc4cc(F)cc(F)c4)NC(=O)Cn4ccc(C5CC5)n4)nc4cc(F)cc(F)c4c3=O)c21` (single isomer, unassigned) [Example 131], for which, in data set [1] (Renilla, NL43, Table 1a), the half-maximal effective concentration (EC50) was 111 nM. In data set [2] (Table 1a, day 4, XTT), the CC50 at 4 days is over 1000 nM.
In the case of `Cn1nc(NS(C)(=O)=O)c2c(Cl)ccc(-c3cc4ccccc4nc3[C@H](Cc3cc(F)cc(F)c3)NC(=O)Cc3c[nH]c4ccc(O)cc34)c21` [Example 10.17], in data set [1] (Renilla, NL43, Table 1), the EC50 came out at 2.4 nM. The compound further yielded a cytotoxic concentration (CC50) at 4 days in data set [2] (Table 1, day 4, XTT) of over 10000 nM.
Take `Cn1nc(NS(C)(=O)=O)c2c(Cl)ccc(-n3c([C@H](Cc4cc(F)cc(F)c4)NC(=O)Cn4nc(C(F)F)c5c4C(F)(F)[C@@H]4C[C@H]54)nc4ncccc4c3=O)c21` (single isomer, unassigned) [Example 10.39]: in data set [1] (Table 1), the EC50 is 6.98 nM. Also, the CC50 at 4 days in data set [2] (Table 1, day 4, XTT) was over 10000 nM.
For the compound `Cn1nc(NS(C)(=O)=O)c2c(Cl)ccc(-n3c([C@H](Cc4cc(F)cc(F)c4)NC(=O)Cn4nc(C(F)F)c5c4C(F)(F)[C@@H]4C[C@H]54)nc4ccc(F)c(Cl)c4c3=O)c21` (single isomer, unassigned) [Example 160], the 50% effective concentration (EC50) in data set [1] (Table 1a) came out at 0.18 nM. In addition, the CC50 at 4 days in data set [2] (Table 1a, day 4, XTT) is over 1000 nM.
With `COc1ccc2c(=O)n(-c3ccc(Cl)c4c(NS(C)(=O)=O)nn(C)c34)c(C(Cc3cc(F)cc(F)c3)NC(=O)Cn3nc(C(F)F)c4c3C(F)(F)C3CC43)nc2n1` (stereo in doubt) [Example 13.1, N—((S)-1-(3-(4-chloro-1-methyl-3-(methylsulfonamido)-1H-indazol-7-yl)-7-methoxy-4-oxo-3,4-dihydropyrido[2,3-d]pyrimidin-2-yl)-2-(3,5-difluorophenyl)ethyl)-2-((3bS,4aR)-3-(difluoromethyl)-5,5-difluoro-3b,4,4a,5-tetrahydro-1H-cyclopropa[3,4]cyclopenta[1,2-c]pyrazol-1-yl)acetamide], in data set [1] (Renilla, NL43, Table 1), the half-maximal effective concentration (EC50) is 14300 nM. Also, the CC50 at 4 days in data set [2] (Table 1, day 4, XTT) is over 10000 nM.
In the case of `Cn1nc(NS(C)(=O)=O)c2c(Cl)ccc(-n3c([C@H](Cc4cc(F)cc(F)c4)NC(=O)Cn4nc(C(F)F)c5c4C(F)(F)[C@@H]4C[C@H]54)nc4cccc(Cl)c4c3=O)c21` (single isomer, unassigned) [Example 22.2], in data set [1] (Renilla, NL43, Table 1), the half-maximal effective concentration (EC50) came out at 130 nM. In data set [2] (Table 1, day 4, XTT), this compound yielded a CC50 at 4 days of over 1000 nM.
With `Cn1nc(NS(C)(=O)=O)c2c(Cl)ccc(-n3c([C@H](Cc4cc(F)cc(F)c4)NC(=O)Cn4nc(C(F)F)c5c4C(F)(F)[C@@H]4C[C@H]54)nc4cc(C(C)(C)C)ccc4c3=O)c21` (mixture of isomers) [Example 215, N—((S)-1-(7-(tert-Butyl)-3-(4-chloro-1-methyl-3-(methylsulfonamido)-1H-indazol-7-yl)-4-oxo-3,4-dihydroquinazolin-2-yl)-2-(3,5-difluorophenyl)ethyl)-2-((3bS,4aR)-3-(difluoromethyl)-5,5-difluoro-3b,4,4a,5-tetrahydro-1H-cyclopropa[3,4]cyclopenta[1,2-c]pyrazol-1-yl)acetamide], the EC50 in data set [1] (Table 1a) was determined as 354 nM. The compound further returned a 50% cytotoxic concentration (CC50) at 4 days in data set [2] (Table 1a, day 4, XTT) of over 1000 nM.
The like results for `Cn1nc(NS(C)(=O)=O)c2c(Cl)ccc(-n3c([C@H](Cc4cc(F)cc(F)c4)NC(=O)Cn4nc(C(F)F)c5c4CCC5)nc4c(F)cc(F)cc4c3=O)c21` (single isomer, unassigned) [Example 99] were, in that order, 17.8 nM and over 1000 nM.
In the case of `Cn1nc(NS(C)(=O)=O)c2c(Cl)ccc(-n3c([C@H](Cc4cc(F)cc(F)c4)NC(=O)Cn4nc(C(F)F)c5c4C(F)(F)[C@@H]4C[C@H]54)nc4ccccc4c3=O)c21` (single isomer, unassigned) [Example 16], the EC50 in data set [1] (Renilla, NL43, Table 1) turned out to be 49 nM. In data set [2] (Table 1, day 4, XTT), this compound gave a cytotoxic concentration (CC50) at 4 days of over 10000 nM.
As for `COc1ccc2c(=O)n(-c3ccc(Cl)c4c(NS(C)(=O)=O)nn(CC(F)F)c34)c([C@H](Cc3cc(F)cc(F)c3)NC(=O)Cn3nc(C(F)F)c4c3C(F)(F)[C@@H]3C[C@H]43)nc2c1` (single isomer, unassigned) [Example 191], the half-maximal effective concentration (EC50) in data set [1] (Renilla, NL43, Table 1a) came to 0.06 nM. Besides, in data set [2] (Table 1a, day 4, XTT), the CC50 at 4 days is over 1000 nM.
For the compound `Cn1nc(NS(C)(=O)=O)c2c(Cl)ccc(-n3c(C(Cc4cc(F)cc(F)c4)NC(=O)Cn4nc(C(F)F)c5c4C(F)(F)[C@@H]4C[C@H]54)nc4c(F)cc(F)cc4c3=O)c21` (stereo partly drawn) [Example 73], in data set [1] (Renilla, NL43, Table 1a), the concentration for a half-maximal effect (EC50) was 1.53 nM. The compound also displayed a half-maximal cytotoxic concentration (CC50) at 4 days in data set [2] (Table 1a, day 4, XTT) of over 1000 nM.
For `Cn1nc(NS(C)(=O)=O)c2c(Cl)ccc(-n3c([C@H](Cc4cc(F)cc(F)c4)NC(=O)Cc4c[nH]c5ccc(O)cc45)nc4ncccc4c3=O)c21` [Example 53, N-[(1S)-1-[3-(4-chloro-3-methanesulfonamido-1-methyl-1H-indazol-7-yl)-4-oxo-3H,4H-pyrido[2,3-d]pyrimidin-2-yl]-2-(3,5-difluorophenyl)ethyl]-2-(5-hydroxy-1H-indol-3-yl)acetamide], the half-maximal effective concentration (EC50) in data set [1] (Renilla, NL43, Table 1a) was found to be 5.71 nM. The same compound came in with a cytotoxic concentration (CC50) at 4 days in data set [2] (Table 1a, day 4, XTT) of over 1000 nM.
As to `COc1c(F)ccc2c(=O)n(-c3ccc(Cl)c4c(NS(C)(=O)=O)nn(C)c34)c([C@H](Cc3cc(F)cc(F)c3)NC(=O)Cn3ccc(C4CC4)n3)nc12` (single isomer, unassigned) [Example 111], the concentration for a half-maximal effect (EC50) in data set [1] (Table 1a) came out at 92.6 nM. Besides, in data set [2] (Table 1a, day 4, XTT), the CC50 at 4 days was over 1000 nM.
Take `NC(=O)c1cc(-n2c([C@H](Cc3cc(F)cc(F)c3)NC(=O)Cn3nc(C(F)F)c4c3C(F)(F)[C@@H]3C[C@H]43)nc3ncccc3c2=O)ccc1Cl` [Example 34, 2-Chloro-5-{2-[(1S)-1-{2-[(2S,4R)-9-(difluoromethyl)-5,5-difluoro-7,8-diazatricyclo[4.3.0.0^2,4]nona-1(6),8-dien-7-yl]acetamido}-2-(3,5-difluorophenyl)ethyl]-4-oxo-3H,4H-pyrido[2,3-d]pyrimidin-3-yl}benzamide]: in data set [1] (Renilla, NL43, Table 1a), the EC50 was 6.93 nM. This compound returned a CC50 at 4 days in data set [2] (Table 1a, day 4, XTT) of over 10000 nM.
On to `Cn1nc(NS(C)(=O)=O)c2c(Cl)ccc(-c3cc4cn[nH]c4nc3C(Cc3cc(F)cc(F)c3)NC(=O)Cn3nc(C(F)F)c4c3C(F)(F)[C@@H]3C[C@H]43)c21` (single isomer, unassigned) [Example 6.1], for which the concentration for a half-maximal effect (EC50) in data set [1] (Table 1) was 1020 nM. In data set [2] (Table 1, day 4, XTT), the 50% cytotoxic concentration (CC50) at 4 days is over 10000 nM.
Take `CN(c1nn(C)c2c(-c3cc4c(ccn4C)nc3[C@H](Cc3cc(F)cc(F)c3)NC(=O)Cn3nc(C(F)F)c4c3C(F)(F)[C@@H]3C[C@H]43)ccc(Cl)c12)S(C)(=O)=O` (single isomer, unassigned) [Example 64]: the concentration for a half-maximal effect (EC50) in data set [1] (Renilla, NL43, Table 1a) was 4 nM. In addition, in data set [2] (Table 1a, day 4, XTT), the CC50 at 4 days is over 10000 nM.
For `Cc1nc2nc(C(Cc3cc(F)cc(F)c3)NC(=O)Cn3nc(C(F)F)c4c3CCC4)c(-c3ccc(Cl)c4c(NS(C)(=O)=O)nn(C)c34)cc2s1` (single isomer, unassigned) [Example 2.3, N-(1-(6-(4-chloro-1-methyl-3-(methylsulfonamido)-1H-indazol-7-yl)-2-methylthiazolo[4,5-b]pyridin-5-yl)-2-(3,5-difluorophenyl)ethyl)-2-(3-(difluoromethyl)-5,6-dihydrocyclopenta[c]pyrazol-1(4H)-yl)acetamide], in data set [1] (Table 1), the half-maximal effective concentration (EC50) was 0.1 nM. Moreover, in data set [2] (Table 1, day 4, XTT), the CC50 at 4 days is over 10000 nM.
Regarding `CC(C)n1nc(NS(C)(=O)=O)c2c(Cl)ccc(-n3c([C@H](Cc4cc(F)cc(F)c4)NC(=O)Cn4nc(C(F)F)c5c4C(F)(F)[C@@H]4C[C@H]54)nc4ncccc4c3=O)c21` (mixture of isomers) [Example 43.2, N-[(1S)-1-{3-[4-chloro-3-methanesulfonamido-1-(propan-2-yl)-1H-indazol-7-yl]-4-oxo-3H,4H-pyrido[2,3-d]pyrimidin-2-yl}-2-(3,5-difluorophenyl)ethyl]-2-[(2S,4R)-9-(difluoromethyl)-5,5-difluoro-7,8-diazatricyclo[4.3.0.0^2,4]nona-1(6),8-dien-7-yl]acetamide], the EC50 in data set [1] (Renilla, NL43, Table 1a) stood at 0.132 nM. The compound also gave a CC50 at 4 days in data set [2] (Table 1a, day 4, XTT) of over 10000 nM.
For `O=C(Cn1nc(C(F)F)c2c1C(F)(F)[C@@H]1C[C@H]21)N[C@@H](Cc1cc(F)cc(F)c1)c1nc2cn[nH]c2cc1-c1ccc2c(c1)CNC2=O` [Example 10.12, 2-((3bS,4aR)-3-(difluoromethyl)-5,5-difluoro-3b,4,4a,5-tetrahydro-1H-cyclopropa[3,4]cyclopenta[1,2-c]pyrazol-1-yl)-N—((S)-2-(3,5-difluorophenyl)-1-(6-(1-oxoisoindolin-5-yl)-1H-pyrazolo[4,3-b]pyridin-5-yl)ethyl)acetamide], in data set [1] (Renilla, NL43, Table 1), the 50% effective concentration (EC50) was 95 nM. This compound had a 50% cytotoxic concentration (CC50) at 4 days in data set [2] (Table 1, day 4, XTT) of over 10000 nM.
